Consider 2 compounds from patent US12152048B2, “Nitroxoline prodrug and use thereof” (Jiangsu Yahong Meditech Co., Ltd., priority 2018, dated 2024).

As usually defined, the solubility is the dissolved amount per volume that the medium holds. A higher solubility goes with much dissolved substance.

Series [1] is described as follows: Stability in human liver microsome. The note with it: 2 μM, 37° C., 30 minutes. (Microsomes from liver hold many membrane-bound enzymes, among them those of drug oxidation.)
Series [2] in a line: Stability in rat liver microsome. Particulars: 2 μM, 37° C., 30 minutes.
The nature of series [3]: Determination of water solubility in phosphate buffer. The class given is physicochemical. The note with it: for solubility at 24 h: thermodynamic from solid. An outline of the steps:
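Thermodynamic solubility: compound concentration measured by LC/MS/MS in the vacuum filtrate after 24 h shaking at room temperature of 2 mg powder in 500 μL phosphate buffer at pH 1.2, 4.5, 6.8 or 7.4.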

Series [4] is described as follows: Stability in dog liver microsome. The note with it: 2 μM, 37° C., 30 minutes.
A short description of series [5]: Stability in plasma, overall conclusion (species not stated). Particulars: conclusion in words.
A short description of series [6]: Stability in human plasma.
The nature of a further series: Stability in dog plasma. It is filed as in vitro ADME.

Turning to `CC(C)(C)OP(=O)(OCOc1ccc([N+](=O)[O-])c2cccnc12)OC(C)(C)C` [Compound 70, di-tert-butyl (5-nitroquinolin-8-yloxy)methyl phosphate], the “Percentage of the compound remaining in human liver microsome” value in series [1] (with coenzyme) is 91.20%; in series [1] (without coenzyme), 91.76%. Also, the “Percentage of the compound remaining in rat liver microsome” value stood at 94.34% in series [2] (with coenzyme) and 96.79% in series [2] (without coenzyme). For the same compound, the solubility at 24 h was 843 µg/mL in series [3] (aqueous buffer, phosphate buffer pH 4.5, room temperature); 940 µg/mL in series [3] (aqueous buffer, phosphate buffer pH 6.8, room temperature); 998 µg/mL in series [3] (aqueous buffer, phosphate buffer pH 7.4, room temperature); 639 µg/mL in series [3] (simulated gastric fluid, phosphate buffer pH 1.2, room temperature). Moreover, the “water solubility compared with nitroxoline” value in series [3] (conclusion in words) was “increased by several times”. Moreover, the “Percentage of the compound remaining in plasma” value in the series “Stability in rat plasma” (0 minute) turned out to be 100.0%; in the series “Stability in rat plasma” (37° C., 15 minutes), 93.4%; in the series “Stability in rat plasma” (37° C., 30 minutes), 80.7%; in “Stability in rat plasma” (37° C., 60 minutes), 84.1%; in “Stability in rat plasma” (37° C., 120 minutes), 72.9%; in series [6] (0 minute) it was 100.0%. Besides, the “Percentage of the compound remaining in plasma” value in series [6] (37° C., 15 minutes) was 85.6%; in series [6] (37° C., 30 minutes), 89.0%; in series [6] (37° C., 60 minutes), 75.2%; in series [6] (37° C., 120 minutes), 74.4%. Moreover, the “Percentage of the compound remaining in dog liver microsome” value is 91.42% in series [4] (with coenzyme) and 90.90% in series [4] (without coenzyme). The stability in plasma result in series [5] is “high stability”.
Regarding `CC(C)OC(=O)[C@H](C)NP(=O)(OCOc1ccc([N+](=O)[O-])c2cccnc12)Oc1ccccc1` (some centres unmarked) [Compound 75], the “Percentage of the compound remaining in human liver microsome” value in series [1] (with coenzyme) is listed as 1.64%; in series [1] (without coenzyme), 6.45%. For the same compound, the entries for the “Percentage of the compound remaining in rat liver microsome” value in series [2] (with coenzyme) and in series [2] (without coenzyme) were 0.00% and 0.02%, respectively. The “Percentage of the compound remaining in plasma” value in the series “Stability in rat plasma” (0 minute) worked out at 100.0%; in the series “Stability in rat plasma” (37° C., 15 minutes), 0.0%; in “Stability in rat plasma” (37° C., 30 minutes), 0.0%; in “Stability in rat plasma” (37° C., 60 minutes) it was 0.0%; in the series “Stability in rat plasma” (37° C., 120 minutes), 0.0%; in the series “Stability in dog plasma” (0 minute) it was 100.0%. The “Percentage of the compound remaining in plasma” value in the series “Stability in dog plasma” (37° C., 15 minutes) came out at 98.3%; in the series “Stability in dog plasma” (37° C., 30 minutes), 95.6%; in “Stability in dog plasma” (37° C., 60 minutes), 80.8%; in the series “Stability in dog plasma” (37° C., 120 minutes), 67.8%; in series [6] (0 minute) it was 100.0%; in series [6] (37° C., 15 minutes), 98.5%. Moreover, the “Percentage of the compound remaining in plasma” value in series [6] (37° C., 30 minutes) came to 94.0%; in series [6] (37° C., 60 minutes), 87.2%; in series [6] (37° C., 120 minutes), 65.5%. Moreover, the “Percentage of the compound remaining in dog liver microsome” value is on record as 12.95% in series [4] (with coenzyme) and 48.90% in series [4] (without coenzyme). For the same compound, the stability in plasma entry in series [5] was “high stability”.
